The results in this text go back to patent US12146177B2, “Methods of making and using E,Z,E-geranylgeranyl diphosphate” (WiSys Technology Foundation, Inc., priority 2020, dated 2024).

In this assay the test system is Escherichia coli C41. The class given is cell-based. To be noted: compound itself not applied to cells.

The structures appear in SMILES notation.

With `CC(C)=CCC/C(C)=C/CC/C(C)=C\CC/C(C)=C/COP(=O)(O)OP(=O)(O)O` [E,Z,E-GGPP, E,Z,E-Geranylgeranyl pyrophosphate], the “bactericidal effect on E. coli” value is “bactericidal agent”.
